Experiments:
Type in all cases: functional
SN12C = experiment: Growth inhibition of human SN12C cells assessed as cell growth at 10 uM after 48 hrs by sulforhodamine B assay relative to control; settings: read-out: Activity
MDA-MB-468 = experiment: Growth inhibition of human MDA-MB-468 cells assessed as cell growth at 10 uM after 48 hrs by sulforhodamine B assay relative to control; settings: MDA-MB-468, 48 h, read-out: Activity
[1] = Growth inhibition of human UACC257 cells assessed as cell growth at 10 uM after 48 hrs by sulforhodamine B assay relative to control; settings: UACC-257, 48 h, read-out: Activity
SNB-19 = experiment: Growth inhibition of human SNB19 cells assessed as cell growth at 10 uM after 48 hrs by sulforhodamine B assay relative to control; settings: SNB-19, 48 h, read-out: Activity
A549 = experiment: Growth inhibition of human A549/ATCC cells assessed as cell growth at 10 uM after 48 hrs by sulforhodamine B assay relative to control; settings: A549, 48 h, read-out: Activity
SK-MEL-28 = experiment: Growth inhibition of human SK-MEL-28 cells assessed as cell growth at 10 uM after 48 hrs by sulforhodamine B assay relative to control; settings: SK-MEL-28, 48 h, read-out: Activity
A498 = experiment: Growth inhibition of human A498 cells assessed as cell growth at 10 uM after 48 hrs by sulforhodamine B assay relative to control; settings: A498, 48 h, read-out: Activity
[2] = Growth inhibition of human HCT15 cells assessed as cell growth at 10 uM after 48 hrs by sulforhodamine B assay relative to control; settings: HCT-15, 48 h, read-out: Activity
SK-OV-3 = experiment: Growth inhibition of human SKOV3 cells assessed as cell growth at 10 uM after 48 hrs by sulforhodamine B assay relative to control; settings: SK-OV-3, 48 h, read-out: Activity
SR = experiment: Growth inhibition of human SR cells assessed as cell growth at 10 uM after 48 hrs by sulforhodamine B assay relative to control; settings: read-out: Activity
SNB-75 = experiment: Growth inhibition of human SNB75 cells assessed as cell growth at 10 uM after 48 hrs by sulforhodamine B assay relative to control; settings: SNB-75, 48 h, read-out: Activity
M14 = experiment: Growth inhibition of human M14 cells assessed as cell growth at 10 uM after 48 hrs by sulforhodamine B assay relative to control; settings: M14, 48 h, read-out: Activity
COLO 205 = experiment: Growth inhibition of human COLO205 cells assessed as cell growth at 10 uM after 48 hrs by sulforhodamine B assay relative to control; settings: COLO 205, 48 h, read-out: Activity
KM12 = experiment: Growth inhibition of human KM12 cells assessed as cell growth at 10 uM after 48 hrs by sulforhodamine B assay relative to control; settings: KM12, 48 h, read-out: Activity
NCI-H522 = experiment: Growth inhibition of human NCI-H522 cells assessed as cell growth at 10 uM after 48 hrs by sulforhodamine B assay relative to control; settings: NCI-H522, 48 h, read-out: Activity
DU-145 = experiment: Growth inhibition of human DU145 cells assessed as cell growth at 10 uM after 48 hrs by sulforhodamine B assay relative to control; settings: DU-145, 48 h, read-out: Activity
[3] = Growth inhibition of human RXF393 cells assessed as cell growth at 10 uM after 48 hrs by sulforhodamine B assay relative to control; settings: RXF 393, 48 h, read-out: Activity
ACHN = experiment: Growth inhibition of human ACHN cells assessed as cell growth at 10 uM after 48 hrs by sulforhodamine B assay relative to control; settings: read-out: Activity
HL-60(TB) = experiment: Growth inhibition of human HL-60(TB) cells assessed as cell growth at 10 uM after 48 hrs by sulforhodamine B assay relative to control; settings: HL-60, 48 h, read-out: Activity
NCI-H322M = experiment: Growth inhibition of human NCI-H322M cells assessed as cell growth at 10 uM after 48 hrs by sulforhodamine B assay relative to control; settings: read-out: Activity
[4] = Growth inhibition of human OVCAR3 cells assessed as cell growth at 10 uM after 48 hrs by sulforhodamine B assay relative to control; settings: OVCAR-3, 48 h, read-out: Activity
[5] = Growth inhibition of human OVCAR5 cells assessed as cell growth at 10 uM after 48 hrs by sulforhodamine B assay relative to control; settings: OVCAR-5, 48 h, read-out: Activity
[6] = Growth inhibition of human UACC62 cells assessed as cell growth at 10 uM after 48 hrs by sulforhodamine B assay relative to control; settings: UACC-62, 48 h, read-out: Activity
[7] = Growth inhibition of human OVCAR8 cells assessed as cell growth at 10 uM after 48 hrs by sulforhodamine B assay relative to control; settings: OVCAR-8, 48 h, read-out: Activity
[8] = Growth inhibition of human BT549 cells assessed as cell growth at 10 uM after 48 hrs by sulforhodamine B assay relative to control; settings: BT-549, 48 h, read-out: Activity
786-0 = experiment: Growth inhibition of human 786-0 cells assessed as cell growth at 10 uM after 48 hrs by sulforhodamine B assay relative to control; settings: 786-0, 48 h, read-out: Activity
[9] = Growth inhibition of human SF295 cells assessed as cell growth at 10 uM after 48 hrs by sulforhodamine B assay relative to control; settings: SF-295, 48 h, read-out: Activity
[10] = Growth inhibition of human LOXIMVI cells assessed as cell growth at 10 uM after 48 hrs by sulforhodamine B assay relative to control; settings: LOX IMVI, read-out: Activity
[11] = Growth inhibition of human MOLT4 cells assessed as cell growth at 10 uM after 48 hrs by sulforhodamine B assay relative to control; settings: MOLT-4, 48 h, read-out: Activity
IGROV-1 = experiment: Growth inhibition of human IGROV1 cells assessed as cell growth at 10 uM after 48 hrs by sulforhodamine B assay relative to control; settings: IGROV-1, 48 h, read-out: Activity
HCT-116 = experiment: Growth inhibition of human HCT116 cells assessed as cell growth at 10 uM after 48 hrs by sulforhodamine B assay relative to control; settings: HCT-116, 48 h, read-out: Activity
SK-MEL-2 = experiment: Growth inhibition of human SK-MEL-2 cells assessed as cell growth at 10 uM after 48 hrs by sulforhodamine B assay relative to control; settings: SK-MEL-2, 48 h, read-out: Activity
[12] = Growth inhibition of human HCC2998 cells assessed as cell growth at 10 uM after 48 hrs by sulforhodamine B assay relative to control; settings: HCC 2998, 48 h, read-out: Activity
[13] = Growth inhibition of human OVCAR4 cells assessed as cell growth at 10 uM after 48 hrs by sulforhodamine B assay relative to control; settings: OVCAR-4, 48 h, read-out: Activity

O=C1N/C(=N/c2nc(-c3ccccc3Cl)cc(-c3ccc(Cl)cc3Cl)n2)S/C1=C/c1ccc(Cl)cc1
growth at 10 µM (SN12C): 91.5% | growth at 10 µM (MDA-MB-468): 34.2% | growth at 10 µM [1]: 93.2% | growth at 10 µM (SNB-19): 93.4% | growth at 10 µM (A549): 88.8% | growth at 10 µM (SK-MEL-28): 104% | growth at 10 µM (A498): 76.2% | growth at 10 µM [2]: 90% | growth at 10 µM (SK-OV-3): 99.2% | growth at 10 µM (SR): 32.4% | growth at 10 µM (SNB-75): 97.5% | growth at 10 µM (M14): 102% | growth at 10 µM (COLO 205): 83.2% | growth at 10 µM (KM12): 79.8% | growth at 10 µM (NCI-H522): 82.3% | growth at 10 µM (DU-145): 100% | growth at 10 µM [3]: 100% | growth at 10 µM (ACHN): 91.6% | growth at 10 µM (HL-60(TB)): 87.1% | growth at 10 µM (NCI-H322M): 78.1% | growth at 10 µM [4]: 89.2% | growth at 10 µM [5]: 102% | growth at 10 µM [6]: 70.2% | growth at 10 µM [7]: 91.6% | growth at 10 µM [8]: 92.2% | growth at 10 µM (786-0): 100% | growth at 10 µM [9]: 48.6% | growth at 10 µM [10]: 74.1% | growth at 10 µM [11]: 94.2% | growth at 10 µM (IGROV-1): 82.3% | growth at 10 µM (HCT-116): 75.4% | growth at 10 µM (SK-MEL-2): 88.9% | growth at 10 µM [12]: 102% | growth at 10 µM [13]: 81.9%

O=C1CS/C(=N\c2nc(-c3ccccc3Cl)cc(-c3ccc(Cl)cc3Cl)n2)N1
growth at 10 µM (SN12C): 98.5% | growth at 10 µM (MDA-MB-468): 93.5% | growth at 10 µM [1]: 107% | growth at 10 µM (SNB-19): 101% | growth at 10 µM (A549): 91.2% | growth at 10 µM (SK-MEL-28): 102% | growth at 10 µM (A498): 101% | growth at 10 µM [2]: 102% | growth at 10 µM (SK-OV-3): 95.4% | growth at 10 µM (SR): 75.1% | growth at 10 µM (SNB-75): 76.6% | growth at 10 µM (M14): 94% | growth at 10 µM (COLO 205): 100% | growth at 10 µM (KM12): 97.7% | growth at 10 µM (NCI-H522): 88.6% | growth at 10 µM (DU-145): 105% | growth at 10 µM [3]: 111% | growth at 10 µM (ACHN): 98.1% | growth at 10 µM (HL-60(TB)): 96.1% | growth at 10 µM (NCI-H322M): 94.9% | growth at 10 µM [4]: 101% | growth at 10 µM [5]: 108% | growth at 10 µM [6]: 91.2% | growth at 10 µM [7]: 96.1% | growth at 10 µM [8]: 98.4% | growth at 10 µM (786-0): 99.7% | growth at 10 µM [9]: 116% | growth at 10 µM [10]: 90.4% | growth at 10 µM [11]: 92% | growth at 10 µM (IGROV-1): 98.2% | growth at 10 µM (HCT-116): 94.5% | growth at 10 µM (SK-MEL-2): 97.9% | growth at 10 µM [12]: 101% | growth at 10 µM [13]: 96.1%

Nc1nc(-c2ccccc2Cl)cc(-c2ccc(Cl)cc2Cl)n1
growth at 10 µM (SN12C): 79.6% | growth at 10 µM (MDA-MB-468): 18.6% | growth at 10 µM [1]: 93% | growth at 10 µM (SNB-19): 78.2% | growth at 10 µM (A549): 52.7% | growth at 10 µM (SK-MEL-28): 88% | growth at 10 µM (A498): 53.7% | growth at 10 µM [2]: 90.2% | growth at 10 µM (SK-OV-3): 93% | growth at 10 µM (SR): 25.4% | growth at 10 µM (SNB-75): 30.5% | growth at 10 µM (M14): 53.5% | growth at 10 µM (COLO 205): 64.9% | growth at 10 µM (KM12): 53.8% | growth at 10 µM (NCI-H522): 68.5% | growth at 10 µM (DU-145): 91.4% | growth at 10 µM [3]: 75.8% | growth at 10 µM (ACHN): 86% | growth at 10 µM (HL-60(TB)): 51.4% | growth at 10 µM (NCI-H322M): 89.5% | growth at 10 µM [4]: 85.2% | growth at 10 µM [5]: 96.2% | growth at 10 µM [6]: 63.1% | growth at 10 µM [7]: 71.2% | growth at 10 µM [8]: 75.3% | growth at 10 µM (786-0): 90.2% | growth at 10 µM [9]: 38.7% | growth at 10 µM [10]: 55.4% | growth at 10 µM [11]: 52.6% | growth at 10 µM (IGROV-1): 74.7% | growth at 10 µM (HCT-116): 33% | growth at 10 µM (SK-MEL-2): 96.2% | growth at 10 µM [12]: 83.6% | growth at 10 µM [13]: 79.6%

From ChEMBL document CHEMBL3286379, “Design and synthesis of pyrimidine molecules endowed with thiazolidin-4-one as new anticancer agents” (Eur J Med Chem, 2014)
